Laboratory results taken from the supplement of paper PMC10307832.

Assays:
Test in all cases: relative viability (nuclei count vs DMSO), 5 days (fraction); higher = more cells survive
LCLC-97TM1 = tested on: LCLC-97TM1
Outline: (§1)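 Relative viability divides the nuclei count in treated wells by that in vehicle wells. Lung cancer cell lines were seeded in 1536-well plates, dosed by pin tool the next day, and fixed and stained after 5 days in one step with final 0.05% Triton X-100, 1% formaldehyde and 1 ug/ml Hoechst. Dosing was a single drug or a fixed anchor-drug dose plus five library-drug doses (not always all listed) in √10 steps, and values are medians of duplicate plates imaged at 4×.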

NCI-H2347 = tested on: NCI-H2347
Outline: as §1

EMC-BAC-2 = tested on: EMC-BAC-2
Outline: as §1

NCI-H1734 = tested on: NCI-H1734
Outline: as §1

NCI-H322M = tested on: NCI-H322M
Outline: as §1

HOP-62 = tested on: HOP-62
Outline: as §1

LXF-289 = tested on: LXF-289
Outline: as §1

SW 1573 = tested on: SW 1573
Outline: as §1

NCI-H661 = tested on: NCI-H661
Outline: as §1

EPLC-272H = tested on: EPLC-272H
Outline: as §1

H3255 = tested on: H3255
Outline: as §1

NCI-H647 = tested on: NCI-H647
Outline: as §1

NCI-H1915 = tested on: NCI-H1915
Outline: as §1

NCI-H2126 = tested on: NCI-H2126
Outline: as §1

NCI-H2023 = tested on: NCI-H2023
Outline: as §1

NCI-H2085 = tested on: NCI-H2085
Outline: as §1

NCI-H2009 = tested on: NCI-H2009
Outline: as §1

PC-14 = tested on: PC-14
Outline: as §1

NCI-H1563 = tested on: NCI-H1563
Outline: as §1

SK-LU-1 = tested on: SK-LU-1
Outline: as §1

NCI-H1993 = tested on: NCI-H1993
Outline: as §1

With `O=c1cc(-c2cccc3c2Sc2ccccc2S3)oc(N2CCOCC2)c1` + Nc1nc2[nH]cc(CCc3ccc(C(=O)N[C@@H](CCC(=O)O)C(=O)O)cc3)c2c(=O)[nH]1 [Pemetrexed] (partner 0.2 µM) the relative viability (LCLC-97TM1; first compound 0.08 µM) was 0.175, the relative viability (LCLC-97TM1; first compound 0.253 µM) was 0.169 and the relative viability (LCLC-97TM1; first compound 0.8 µM) was 0.18. It also gave a relative viability (LCLC-97TM1; first compound 2.53 µM) of 0.177, a relative viability (LCLC-97TM1; first compound 8 µM) of 0.175 and a relative viability (NCI-H2347; first compound 0.08 µM) of 0.386. It also gave a relative viability (NCI-H2347; first compound 0.253 µM) of 0.458, a relative viability (NCI-H2347; first compound 0.8 µM) of 0.465 and a relative viability (NCI-H2347; first compound 2.53 µM) of 0.424. It also gave a relative viability (NCI-H2347; first compound 8 µM) of 0.435, a relative viability (EMC-BAC-2; first compound 0.08 µM) of 0.396 and a relative viability (EMC-BAC-2; first compound 0.253 µM) of 0.473. It also gave a relative viability (EMC-BAC-2; first compound 0.8 µM) of 0.442, a relative viability (EMC-BAC-2; first compound 2.53 µM) of 0.429 and a relative viability (EMC-BAC-2; first compound 8 µM) of 0.463. The relative viability (NCI-H1734; first compound 0.08 µM) was 0.394, the relative viability (NCI-H1734; first compound 0.253 µM) was 0.45 and the relative viability (NCI-H1734; first compound 0.8 µM) was 0.487. It also gave a relative viability (NCI-H1734; first compound 8 µM) of 0.432, a relative viability (NCI-H322M; first compound 0.08 µM) of 0.57 and a relative viability (NCI-H322M; first compound 0.253 µM) of 0.61. For the same compound, the relative viability (NCI-H322M; first compound 0.8 µM) was 0.598, the relative viability (NCI-H322M; first compound 2.53 µM) was 0.634 and the relative viability (NCI-H322M; first compound 8 µM) was 0.602. It also gave a relative viability (HOP-62; first compound 0.08 µM) of 0.322, a relative viability (HOP-62; first compound 0.253 µM) of 0.305 and a relative viability (HOP-62; first compound 0.8 µM) of 0.406. The relative viability (HOP-62; first compound 2.53 µM) was 0.396, the relative viability (HOP-62; first compound 8 µM) was 0.352 and the relative viability (LXF-289; first compound 0.08 µM) was 0.95. For the same compound, the relative viability (LXF-289; first compound 0.253 µM) was 0.96, the relative viability (LXF-289; first compound 0.8 µM) was 0.975 and the relative viability (LXF-289; first compound 2.53 µM) was 0.93. The relative viability (LXF-289; first compound 8 µM) was 1.03, the relative viability (SW 1573; first compound 0.08 µM) was 0.754 and the relative viability (SW 1573; first compound 0.253 µM) was 1.11. For the same compound, the relative viability (SW 1573; first compound 0.8 µM) was 0.865, the relative viability (SW 1573; first compound 2.53 µM) was 0.838 and the relative viability (SW 1573; first compound 8 µM) was 0.924. The relative viability (NCI-H661; first compound 0.08 µM) was 0.9, the relative viability (NCI-H661; first compound 0.253 µM) was 0.942 and the relative viability (NCI-H661; first compound 0.8 µM) was 0.962. For the same compound, the relative viability (NCI-H661; first compound 2.53 µM) was 0.874, the relative viability (NCI-H661; first compound 8 µM) was 0.899 and the relative viability (EPLC-272H; first compound 0.08 µM) was 0.296. For the same compound, the relative viability (EPLC-272H; first compound 0.253 µM) was 0.224, the relative viability (EPLC-272H; first compound 0.8 µM) was 0.333 and the relative viability (EPLC-272H; first compound 2.53 µM) was 0.304. The relative viability (EPLC-272H; first compound 8 µM) was 0.197, the relative viability (H3255; first compound 0.08 µM) was 0.474 and the relative viability (H3255; first compound 0.253 µM) was 0.547. For the same compound, the relative viability (H3255; first compound 0.8 µM) was 0.533, the relative viability (H3255; first compound 2.53 µM) was 0.552 and the relative viability (H3255; first compound 8 µM) was 0.56. For the same compound, the relative viability (NCI-H647; first compound 0.08 µM) was 0.168, the relative viability (NCI-H647; first compound 0.253 µM) was 0.149 and the relative viability (NCI-H647; first compound 0.8 µM) was 0.17. It also gave a relative viability (NCI-H647; first compound 2.53 µM) of 0.169, a relative viability (NCI-H647; first compound 8 µM) of 0.159 and a relative viability (NCI-H1915; first compound 0.08 µM) of 0.507. It also gave a relative viability (NCI-H1915; first compound 0.253 µM) of 0.442, a relative viability (NCI-H1915; first compound 0.8 µM) of 0.552 and a relative viability (NCI-H1915; first compound 2.53 µM) of 0.52. The relative viability (NCI-H1915; first compound 8 µM) was 0.405, the relative viability (NCI-H2126; first compound 0.08 µM) was 0.682 and the relative viability (NCI-H2126; first compound 0.253 µM) was 0.785. For the same compound, the relative viability (NCI-H2126; first compound 0.8 µM) was 0.71, the relative viability (NCI-H2126; first compound 2.53 µM) was 0.695 and the relative viability (NCI-H2126; first compound 8 µM) was 0.645. The relative viability (NCI-H2023; first compound 0.08 µM) was 0.222, the relative viability (NCI-H2023; first compound 0.253 µM) was 0.3 and the relative viability (NCI-H2023; first compound 0.8 µM) was 0.198. It also gave a relative viability (NCI-H2023; first compound 2.53 µM) of 0.213, a relative viability (NCI-H2023; first compound 8 µM) of 0.221 and a relative viability (NCI-H2085; first compound 0.08 µM) of 0.828. It also gave a relative viability (NCI-H2085; first compound 0.253 µM) of 0.962, a relative viability (NCI-H2085; first compound 0.8 µM) of 0.934 and a relative viability (NCI-H2085; first compound 2.53 µM) of 0.757. For the same compound, the relative viability (NCI-H2085; first compound 8 µM) was 0.773, the relative viability (NCI-H2009; first compound 0.08 µM) was 1.08 and the relative viability (NCI-H2009; first compound 0.253 µM) was 0.96. For the same compound, the relative viability (NCI-H2009; first compound 0.8 µM) was 0.983, the relative viability (NCI-H2009; first compound 2.53 µM) was 0.966 and the relative viability (NCI-H2009; first compound 8 µM) was 0.957. It also gave a relative viability (PC-14; first compound 0.08 µM) of 0.138, a relative viability (PC-14; first compound 0.253 µM) of 0.135 and a relative viability (PC-14; first compound 0.8 µM) of 0.132. The relative viability (PC-14; first compound 2.53 µM) was 0.119, the relative viability (PC-14; first compound 8 µM) was 0.12 and the relative viability (NCI-H1563; first compound 0.08 µM) was 0.695. It also gave a relative viability (NCI-H1563; first compound 0.253 µM) of 0.741, a relative viability (NCI-H1563; first compound 0.8 µM) of 0.744 and a relative viability (NCI-H1563; first compound 2.53 µM) of 0.684. It also gave a relative viability (NCI-H1563; first compound 8 µM) of 0.787, a relative viability (SK-LU-1; first compound 0.08 µM) of 1.1 and a relative viability (SK-LU-1; first compound 0.253 µM) of 1.27. For the same compound, the relative viability (SK-LU-1; first compound 0.8 µM) was 1.14, the relative viability (SK-LU-1; first compound 2.53 µM) was 0.885 and the relative viability (SK-LU-1; first compound 8 µM) was 1.03. It also gave a relative viability (NCI-H1993; first compound 0.08 µM) of 0.588, a relative viability (NCI-H1993; first compound 0.253 µM) of 0.702 and a relative viability (NCI-H1993; first compound 0.8 µM) of 0.567. It also gave a relative viability (NCI-H1993; first compound 2.53 µM) of 0.497 and a relative viability (NCI-H1993; first compound 8 µM) of 0.613.
